Drawing on patent US20240166617A1, “PHOSPHOINOSITIDE 3 KINASE BETA INHIBITORS AND COMPOSITIONS AND METHODS THEREOF” (Geode Therapeutics Inc., priority 2021, published 2024), this text covers inhibition and Kd for 18 compounds.

Usually Kd stands for a measure of binding affinity in units of concentration. Lower therefore signals a tighter complex.

Like-named read-outs stand apart in the source and are kept apart here. Some results are limits rather than exact numbers.

For test [1], the system named is phosphorylation of AKT in HCC70 cells. Put plainly: Cellular assay: phosphorylation of AKT in HCC70 cells (western blotting). To be noted: Homo sapiens, HCC70, 1 h, HCC70 cells, compound 500 nM, 60 min, inhibition of Akt activity from band intensities. The test is classed as cell-based. In outline: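 HCC70 cells treated with compound at 500 nM (0.1% DMSO control) for 60 min at 37 °C; pAKT Ser473 and Thr308 plus total AKT measured by western blot with fluorescent detection. Inhibition from band intensities, binned as + (20–60%), ++ (60–80%), +++ (80–90%), ++++ (>90%).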
(In general: In western blotting, separated proteins are transferred to a membrane and probed.)

A further test deals with T1, PIK3Cb_h (Homo sapiens, UniProt P42338).
T1 construct: purchased Eurofins DiscoveRx Corporation
In words: Enzyme binding assay (KINOMEscan). To be noted: Eurofins DiscoveRx. As to the method:
Kinase enzyme binding affinities of compounds disclosed herein were determined using the KINOMEscan technology performed by Eurofins DiscoveRx Corporation, San Diego, California, USA (www.eurofinsdiscoveryservices.com). Table 2 reports the obtained PIK3β Kd values (nM) of, with the PIK3β Kd being the inhibitor binding constant. Table 3 reports the obtained Kd values (nM), with the Kd being the inhibitor binding constant: […]

The mark [2] stands for this setting: read-out: Index of AI (HCC70) p-AKT Thr 308.
[3] abbreviates: read-out: Index of AI (HCC70) p-AKT ser 473.

T1 sequence (P42338 whole entry): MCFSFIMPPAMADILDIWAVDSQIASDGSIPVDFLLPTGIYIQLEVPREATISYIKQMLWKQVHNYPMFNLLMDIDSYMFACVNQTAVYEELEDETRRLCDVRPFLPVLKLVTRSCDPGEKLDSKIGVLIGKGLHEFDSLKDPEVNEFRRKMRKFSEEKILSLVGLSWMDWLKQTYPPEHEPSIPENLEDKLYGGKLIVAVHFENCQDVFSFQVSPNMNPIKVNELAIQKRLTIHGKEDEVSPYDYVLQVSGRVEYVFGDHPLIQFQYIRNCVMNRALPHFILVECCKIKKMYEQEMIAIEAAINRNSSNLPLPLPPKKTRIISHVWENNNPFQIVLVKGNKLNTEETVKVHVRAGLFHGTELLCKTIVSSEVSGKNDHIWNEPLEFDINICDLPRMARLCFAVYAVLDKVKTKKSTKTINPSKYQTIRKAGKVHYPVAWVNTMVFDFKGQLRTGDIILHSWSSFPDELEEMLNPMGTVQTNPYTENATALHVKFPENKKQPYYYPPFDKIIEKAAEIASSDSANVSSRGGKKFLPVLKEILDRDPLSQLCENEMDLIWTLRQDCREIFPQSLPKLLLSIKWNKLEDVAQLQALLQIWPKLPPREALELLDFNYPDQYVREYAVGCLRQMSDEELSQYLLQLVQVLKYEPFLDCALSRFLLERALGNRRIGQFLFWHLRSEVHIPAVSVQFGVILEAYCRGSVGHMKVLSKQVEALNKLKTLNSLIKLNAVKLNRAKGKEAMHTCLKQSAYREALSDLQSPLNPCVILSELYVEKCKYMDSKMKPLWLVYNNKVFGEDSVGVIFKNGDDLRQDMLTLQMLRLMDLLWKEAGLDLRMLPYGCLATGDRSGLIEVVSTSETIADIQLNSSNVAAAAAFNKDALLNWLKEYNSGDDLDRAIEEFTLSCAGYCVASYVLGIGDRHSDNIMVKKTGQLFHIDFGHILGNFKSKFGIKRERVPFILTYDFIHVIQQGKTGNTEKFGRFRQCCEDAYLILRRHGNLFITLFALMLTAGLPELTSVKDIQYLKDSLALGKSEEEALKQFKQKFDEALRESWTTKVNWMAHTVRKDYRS

In the case of `CC(Nc1cc(F)cc(F)c1)c1cc(O)cc2c(=O)cc(N3CCOCC3)oc12` (stereo not drawn) [Compound 15, 8-(1-((3,5-difluorophenyl)amino)ethyl)-6-hydroxy-2-morpholino-4H-chromen-4-one], the inhibition at 0.5 µM in test [1] (setting [2]) and in test [1] (setting [3]) was more than 90% each time. At PIK3Cb_h, this compound registered a Kd of 0.059 nM.
Consider `CN(C)CCNC(=O)c1cc(CN2CCc3c(F)cc(F)cc32)c2oc(N3CCOCC3)cc(=O)c2c1` [Compound 39, 8-((4,6-difluoroindolin-1-yl)methyl)-N-(2-(dimethylamino)ethyl)-2-morpholino-4-oxo-4H-chromene-6-carboxamide], for which the inhibition at 0.5 µM in test [1] (setting [2]) and in test [1] (setting [3]) was more than 90% each time. For the same compound, the Kd at PIK3Cb_h was 0.072 nM.
In the case of `CC(Nc1cc(F)cc(F)c1)c1cc(N)cc2c(=O)cc(N3CCOCC3)oc12` (stereo not drawn) [Compound 19, 6-amino-8-(1-((3,5-difluorophenyl)amino)ethyl)-2-morpholino-4H-chromen-4-one], the inhibition at 0.5 µM in test [1] (setting [2]) and in test [1] (setting [3]) was more than 90% in each case. On PIK3Cb_h, this compound came in with a Kd of 0.067 nM.
In the case of `O=C(c1cc(CN2CCc3c(F)cc(F)cc32)c2oc(N3CCOCC3)cc(=O)c2c1)N1CCCC1` [Compound 42, 8-((4,6-difluoroindolin-1-yl)methyl)-2-morpholino-6-(pyrrolidine-1-carbonyl)-4H-chromen-4-one], the inhibition at 0.5 µM in test [1] (setting [2]) and in test [1] (setting [3]) was more than 90% in each case. The Kd on PIK3Cb_h amounted to 0.26 nM.
Take `CC(Nc1cc(F)cc(F)c1)c1cc(C(=O)N2CCC(N(C)C)C2)cc2c(=O)cc(N3CCOCC3)oc12` (stereo not drawn) [Compound 27, 8-(1-((3,5-difluorophenyl)amino)ethyl)-6-(3-(dimethylamino)pyrrolidine-1-carbonyl)-2-morpholino-4H-chromen-4-one]: the inhibition at 0.5 µM in test [1] (setting [2]) and in test [1] (setting [3]) was more than 90% throughout. Further, the affinity at PIK3Cb_h, expressed as Kd, was 0.28 nM.
As to `CC(Nc1cc(F)cc(F)c1)c1cc(NC(=O)C2CCCC2)cc2c(=O)cc(N3CCOCC3)oc12` (stereo not drawn) [Compound 12, N-(8-(1-((3,5-difluorophenyl)amino)ethyl)-2-morpholino-4-oxo-4H-chromen-6-yl)cyclopentanecarboxamide], the inhibition at 0.5 µM in test [1] (setting [2]) and in test [1] (setting [3]) was more than 90% throughout. Moreover, binding at PIK3Cb_h was put at a Kd of 0.55 nM.
As to `C[C@@H](Nc1cc(F)cc(F)c1)c1cc(C(=O)N2CC[C@H](N(C)C)C2)cn2c(=O)cc(N3CCOCC3)nc12` [Compound 51, 9-((R)-1-((3,5-difluorophenyl)amino)ethyl)-7-((S)-3-(dimethylamino)pyrrolidine-1-carbonyl)-2-morpholino-4H-pyrido[1,2-a]pyrimidin-4-one], the inhibition at 0.5 µM in test [1] (setting [2]) and in test [1] (setting [3]) was more than 90% throughout. Moreover, the Kd on PIK3Cb_h was 0.12 nM.
As for `CN1CCN(C(=O)c2cc(CN3CCc4c(F)cc(F)cc43)c3oc(N4CCOCC4)cc(=O)c3c2)CC1` [Compound 44, 8-((4,6-difluoroindolin-1-yl)methyl)-6-(4-methylpiperazine-1-carbonyl)-2-morpholino-4H-chromen-4-one], the inhibition at 0.5 µM in test [1] (setting [2]) and in test [1] (setting [3]) was 80 to 90% throughout. The same compound had a Kd at PIK3Cb_h of 1.3 nM.
Consider `CC(Nc1cc(F)cc(F)c1)c1cc(C(=O)N2CC[C@H](N(C)C)C2)cc2c(=O)cc(N3CCOCC3)oc12` (stereo partly drawn) [Compound 30, 8-(1-((3,5-difluorophenyl)amino)ethyl)-6-((S)-3-(dimethylamino)pyrrolidine-1-carbonyl)-2-morpholino-4H-chromen-4-one], for which the inhibition at 0.5 µM in test [1] (setting [2]) and in test [1] (setting [3]) was 80 to 90% each time. This compound also returned a Kd on PIK3Cb_h of 0.32 nM.
Consider `COC(=O)Cc1cc(C(C)Nc2cc(F)cc(F)c2)c2oc(N3CCOCC3)cc(=O)c2c1` (stereo not drawn) [Compound 25, methyl 2-(8-(1-((3,5-difluorophenyl)amino)ethyl)-2-morpholino-4-oxo-4H-chromen-6-yl)acetate], for which the inhibition at 0.5 µM in test [1] (setting [2]) and in test [1] (setting [3]) was more than 90% throughout. The compound also came in with a Kd on PIK3Cb_h of 0.21 nM.
As to `CC(Nc1cc(F)cc(F)c1)c1cc(C(=O)N2CC[C@@H](N(C)C)C2)cc2c(=O)cc(N3CCOCC3)oc12` (stereo partly drawn) [Compound 29, 8-(1-((3,5-difluorophenyl)amino)ethyl)-6-((R)-3-(dimethylamino)pyrrolidine-1-carbonyl)-2-morpholino-4H-chromen-4-one], the inhibition at 0.5 µM in test [1] (setting [2]) and in test [1] (setting [3]) was more than 90% each time. In addition, the Kd on PIK3Cb_h turned out to be 0.17 nM.
As for `CN(C)C(=O)c1cc(CN2CC(C)(C)c3c(F)cc(F)cc32)c2oc(N3CCOCC3)cc(=O)c2c1` [Compound 34, 8-((4,6-difluoro-3,3-dimethylindolin-1-yl)methyl)-N,N-dimethyl-2-morpholino-4-oxo-4H-chromene-6-carboxamide], the inhibition at 0.5 µM in test [1] (setting [2]) and in test [1] (setting [3]) was 80 to 90% in each case. In addition, the dissociation constant (Kd) at PIK3Cb_h was 0.37 nM.
Consider `CC(Nc1cc(F)cc(F)c1)c1cc(NS(C)(=O)=O)cc2c(=O)cc(N3CCOCC3)oc12` (stereo not drawn) [Compound 13, N-(8-(1-((3,5-difluorophenyl)amino)ethyl)-2-morpholino-4-oxo-4H-chromen-6-yl)methanesulfonamide], for which the inhibition at 0.5 µM in test [1] (setting [2]) and in test [1] (setting [3]) was 80 to 90% in each case. On PIK3Cb_h, this compound registered a Kd of 0.14 nM.
For the compound `CC(Nc1cc(F)cc(F)c1)c1cc(C(=O)N2CC(N(C)C)C2)cn2c(=O)cc(N3CCOCC3)nc12` (stereo not drawn) [Compound 49, 9-(1-((3,5-difluorophenyl)amino)ethyl)-7-(3-(dimethylamino)azetidine-1-carbonyl)-2-morpholino-4H-pyrido[1,2-a]pyrimidin-4-one], the inhibition at 0.5 µM in test [1] (setting [2]) and in test [1] (setting [3]) was 60 to 80% each time. At PIK3Cb_h, this compound showed a dissociation constant (Kd) of 0.67 nM.
For `Cc1cc(C(C)N2c3cc(F)cc(F)c3CC2C)c2nc(N3CCOCC3)cc(=O)n2c1` (stereo not drawn) [Compound 58, 9-(1-(4,6-difluoro-2-methylindolin-1-yl)ethyl)-7-methyl-2-morpholino-4H-pyrido[1,2-a]pyrimidin-4-one], the inhibition at 0.5 µM in test [1] (setting [2]) and in test [1] (setting [3]) was 80 to 90% each time. The Kd at PIK3Cb_h worked out at 2 nM.
Consider `CC1Cc2c(F)cc(F)cc2N1C(C)c1cc(C(=O)N(C)C)cc2c(=O)cc(N3CCOCC3)oc12` (stereo not drawn) [Compound 38, 8-(1-(4,6-difluoro-2-methylindolin-1-yl)ethyl)-N,N-dimethyl-2-morpholino-4-oxo-4H-chromene-6-carboxamide], for which the inhibition at 0.5 µM in test [1] (setting [2]) and in test [1] (setting [3]) was more than 90% throughout. In addition, binding at PIK3Cb_h was put at a Kd of 0.52 nM.
Regarding `Cc1cc(C(C)N2CCc3c(F)cc(F)cc32)c2nc(N3CCOCC3)cc(=O)n2c1` (stereo not drawn) [Compound 59, 9-(1-(4,6-difluoroindolin-1-yl)ethyl)-7-methyl-2-morpholino-4H-pyrido[1,2-a]pyrimidin-4-one], the inhibition at 0.5 µM in test [1] (setting [2]) and in test [1] (setting [3]) was 80 to 90% throughout. On PIK3Cb_h, this compound registered a Kd of 0.61 nM.
Regarding `C[C@@H](Nc1cc(F)cc(F)c1)c1cc(C(=O)N2CC[C@@H](N(C)C)C2)cn2c(=O)cc(N3CCOCC3)nc12` [Compound 50, 9-((R)-1-((3,5-difluorophenyl)amino)ethyl)-7-((R)-3-(dimethylamino)pyrrolidine-1-carbonyl)-2-morpholino-4H-pyrido[1,2-a]pyrimidin-4-one], the inhibition at 0.5 µM in test [1] (setting [2]) and in test [1] (setting [3]) was more than 90% throughout. On PIK3Cb_h, this compound gave a Kd of 0.11 nM.
